Holding throughout (type): in vivo
The test system of assay [1] is Spodoptera littoralis (Egyptian cotton leaf worm). Put plainly: Example B1: Spodoptera littoralis larvicide, feeding/residual contact activity, preventive (cotton leaf discs). To be noted: foliar, 72 h, L1 larvae on sprayed cotton leaf discs, 3 days after treatment, read-out: effect in at least one of the three categories (mortality, anti-feedancy, or growth inhibition). From the text: Example B1: Activity Against Spodoptera littoralis (Egyptian Cotton Leaf Worm)
(§1) (Larvicide, Feeding/Residual Contact Activity, Preventive)
Cotton leaf discs were placed on agar in a 24-well microtiter plate and sprayed with test solutions. After drying, the leaf discs were infested with five L1 larvae. The samples were checked for mortality, repellent effect, feeding behaviour, and growth regulation 3 days after treatment (DAT). Control of Spodoptera littoralis by a test sample is when at least one of mortality, anti-feedant effect, and growth inhibition is higher than an untreated sample.

Assay [2] relates to Diabrotica balteata (corn root worm). Put plainly: Example B4: Diabrotica balteata larvae L2 on maize sprouts, feeding/contact, preventative. To be noted: 120 h, 5 days, read-out: activity (larval mortality and growth regulation). How it is done: Example B4: Activity Against Diabrotica balteata (Corn Root Worm)
(Larvae L2 on Maize Sprouts, Feeding/Contact, Preventative)
Maize sprouts, placed on an agar layer in 24 well micro titer plates were treated with test solutions by spraying. After drying, the MTPs were infested with L2 larvae (6-10 per well). After an incubation period of 5 days, samples were checked for larval mortality and growth regulation.

For assay [3], the system named is Myzus persicae (green peach aphid). The experiment in a line: Example B5: Myzus persicae feeding/residual contact activity, preventive, mixed population (sunflower leaf discs). To be noted: foliar, 144 h, mixed population on sunflower leaf discs, 6 DAT. How it is done: Example B5: Activity Against Myzus persicae (Green Peach Aphid)
(Feeding/Residual Contact Activity, Preventive), Mixed Population
Sunflower leaf discs were placed on agar in a 24-well microtiter plate and sprayed with test solutions. After drying, the leaf discs were infested with an aphid population of mixed ages. After an incubation period of 6 DAT, samples were checked for mortality and special effects (e.g. phytotoxicity).

Assay [4] has the same test system. Put plainly: Example B6: Myzus persicae feeding activity sachet test, mixed population. To be noted: 120 h, sucrose solution, 5 days after infestation. An excerpt: Example B6: Activity Against Myzus persicae (Green Peach Aphid)
(Feeding Activity Sachet Test), Mixed Population
Test compounds were applied by pipette into 24 well plates and mixed with Sucrose solution. The plates were closed with a stretched Parafilm. A plastic stencil with 24 holes is placed onto the plate and infested pea seedlings were placed directly on the Parafilm. The infested plate is closed with a gel blotting paper and another plastic stencil and then turned upside down. 5 days after infestation the samples were checked on mortality. Application rate: 12.5 ppm.

The test system of assay [5] is Plutella xylostella (diamond back moth). Put plainly: Example B3: Plutella xylostella larvicide, feeding/residual contact activity, preventive (artificial diet). The conditions noted are these: 120 h, L2 larvae on artificial diet, 5 days, read-out: activity (larval mortality, antifeedant and growth regulation). The protocol:
Example B3: Activity Against Plutella xylostella (Diamond Back Moth)
as §1
24-well microtiter plate (MTP) with artificial diet was treated with test solutions by pipetting. After drying, the MTPs were infested with L2 larvae (10-15 per well). After an incubation period of 5 days, samples were checked for larval mortality, antifeedant and growth regulation.

For assay [6], the system named is Euschistus heros (neotropical brown stink bug). The experiment in a line: Example B8: Euschistus heros, soybean leaf spray test. The conditions noted are these: 120 h, N-2 nymphs on soybean leaf, 5 days after infestation. The protocol: Example B8: Activity Against Euschistus heros (Neotropical Brown Stink Bug)
Soybean leaf on agar in 24-well microtiter plates were sprayed with aqueous test solutions prepared from 10,000 ppm DMSO stock solutions. After drying the leaf were infested with N-2 nymphs. The samples were assessed for mortality 5 days after infestation.

In general, mortality refers to the percentage killed. As to `CCS(=O)(=O)c1cc(C(F)(F)F)cnc1-c1ncc(-c2cccc(C(F)(F)F)c2)n1C` [Compound P1, 3-ethylsulfonyl-2-[1-methyl-5-[3-(trifluoromethyl)phenyl]imidazol-2-yl]-5-(trifluoromethyl)pyridine], the percent control (mortality, anti-feedancy or growth inhibition) at 400 ppm in assay [1] was not below 80%. Moreover, the mortality at 400 ppm in assay [2] and in assay [3] was more than 80% each time. For the same compound, the mortality at 12.5 ppm in assay [4] was not below 80%.
`CCS(=O)(=O)c1cc(C(F)(F)F)cnc1-c1ncc(-c2cncc(C(F)(F)F)c2)n1C` [Compound P5]: the percent control (mortality, anti-feedancy or growth inhibition) at 400 ppm in assay [1] was not below 80%. In assay [3], this compound showed a mortality at 400 ppm of more than 80%.
Consider `CCS(=O)(=O)c1cc(C(F)(F)F)cnc1-c1nc(Cl)c(-c2ccc(C(F)(F)F)cc2)n1C` [Compound P7], for which the percent control (mortality, anti-feedancy or growth inhibition) at 400 ppm in assay [1] was not below 80%. For the same compound, the mortality at 400 ppm in assay [2] is more than 80%.
With `CCn1c(-c2ccc(C(F)(F)F)nc2)cnc1-c1ncc(C(F)(F)F)cc1S(=O)(=O)CC` [Compound P11], in assay [1], the percent control (mortality, anti-feedancy or growth inhibition) at 400 ppm is not below 80%. Moreover, the mortality at 400 ppm in assay [5], in assay [2] and in assay [3] was more than 80% in each case.
Turning to `CCS(=O)(=O)c1cc(C(F)(F)F)cnc1-c1ncc(-c2cccc(SC(F)(F)F)c2)n1C` [Compound P13], in assay [1], the percent control (mortality, anti-feedancy or growth inhibition) at 400 ppm was not below 80%.
Regarding `CCS(=O)(=O)c1cc(C(F)(F)F)cnc1-c1ncc(-c2cccc(S(=O)(=O)C(F)(F)F)c2)n1C` [Compound P14], the percent control (mortality, anti-feedancy or growth inhibition) at 400 ppm in assay [1] was not below 80%. Further, the mortality at 400 ppm in assay [3] is more than 80%.
Turning to `CCS(=O)(=O)c1cc(C(F)(F)F)cnc1-c1nc(C)c(-c2ccc(C(F)(F)F)cc2)n1C` [Compound P16], in assay [2], the mortality at 400 ppm was more than 80%.
`CCS(=O)(=O)c1cc(C(F)(F)F)cnc1-c1cnc(-c2cc(Cl)cc(Cl)c2)n1C` [Compound P17]: the percent control (mortality, anti-feedancy or growth inhibition) at 400 ppm in assay [1] was not below 80%. The mortality at 400 ppm in assay [5] and in assay [2] was more than 80% throughout.
On to `CCS(=O)(=O)c1cc(C(F)(F)F)cnc1-c1ncc(-c2ccc(Cl)cc2)n1C` [Compound P18], for which the percent control (mortality, anti-feedancy or growth inhibition) at 400 ppm in assay [1] is not below 80%. The mortality at 400 ppm in assay [5] and in assay [2] was more than 80% each time.
In the case of `CCS(=O)(=O)c1cc(C(F)(F)F)cnc1-c1ncc(-c2cc(C(F)(F)F)ccc2F)n1C` [Compound P20], in assay [2], the mortality at 400 ppm is more than 80%.
Consider `CCS(=O)(=O)c1cc(C(F)(F)F)cnc1-c1ncc(-c2cccc(OC(F)(F)F)c2)n1C` [Compound P22], for which the percent control (mortality, anti-feedancy or growth inhibition) at 400 ppm in assay [1] was not below 80%. Moreover, the mortality at 400 ppm in assay [2] is more than 80%.
For the compound `CCS(=O)(=O)c1cc(C(F)(F)F)cnc1-c1ncc(-c2ccc(Cl)nc2)n1C` [Compound P23], in assay [1], the percent control (mortality, anti-feedancy or growth inhibition) at 400 ppm was not below 80%. Further, the mortality at 400 ppm in assay [5] and in assay [2] was more than 80% in each case. For the same compound, the mortality at 12.5 ppm in assay [4] was not below 80%.
As to `CCS(=O)(=O)c1cc(C(F)(F)F)cnc1-c1ncc(-c2ccc(C(F)(C(F)(F)F)C(F)(F)F)cc2)n1C` [Compound P24], the percent control (mortality, anti-feedancy or growth inhibition) at 400 ppm in assay [1] is not below 80%. For the same compound, the mortality at 400 ppm in assay [5] and in assay [2] was more than 80% in each case.
For the compound `CCS(=O)(=O)c1cc(C(F)(F)F)cnc1-c1ncc(-c2cccc(C#N)n2)n1C` [Compound P26], the mortality at 400 ppm in assay [2] is more than 80%.
As for `CCS(=O)(=O)c1cc(C(F)(F)F)cnc1-c1ncc(-c2ccnc(Cl)c2)n1C` [Compound P28], the percent control (mortality, anti-feedancy or growth inhibition) at 400 ppm in assay [1] was not below 80%. For the same compound, the mortality at 400 ppm in assay [5] and in assay [2] was more than 80% in each case.
In the case of `CCS(=O)(=O)c1cc(C(F)(F)F)cnc1-c1ncc(-c2cccc(C(F)(F)Cl)c2)n1C` [Compound P29], in assay [1], the percent control (mortality, anti-feedancy or growth inhibition) at 400 ppm was not below 80%. For the same compound, the mortality at 400 ppm in assay [5], in assay [2] and in assay [6] was more than 80% each time.
Consider `CCS(=O)(=O)c1cc(C(F)(F)F)cnc1-c1ncc(-c2ccc(C(F)(F)F)cc2Cl)n1C` [Compound P30], for which the percent control (mortality, anti-feedancy or growth inhibition) at 400 ppm in assay [1] is not below 80%. The mortality at 400 ppm in assay [2] was more than 80%.
On to `CCS(=O)(=O)c1cc(C(F)(F)F)cnc1-c1ncc(-c2cc(C#N)ccc2Cl)n1C` [Compound P32], for which the mortality at 400 ppm in assay [2] was more than 80%.
With `CCS(=O)(=O)c1cc(C(F)(F)F)cnc1-c1ncc(-c2ccc(Cl)c(Cl)c2F)n1C` [Compound P33], the percent control (mortality, anti-feedancy or growth inhibition) at 400 ppm in assay [1] is not below 80%. For the same compound, the mortality at 400 ppm in assay [5] and in assay [2] was more than 80% each time.
With `CCS(=O)(=O)c1cc(C(F)(F)F)cnc1-c1ncc(-c2cccc(Cl)c2)n1C` [Compound P34], the mortality at 400 ppm in assay [2] is more than 80%.
For the compound `CCS(=O)(=O)c1cc(C(F)(F)F)cnc1-c1ncc(-c2ccc(Cl)c(Cl)c2)n1C` [Compound P35], the percent control (mortality, anti-feedancy or growth inhibition) at 400 ppm in assay [1] was not below 80%. The mortality at 400 ppm in assay [5], in assay [2] and in assay [6] was more than 80% each time.
As for `CCS(=O)(=O)c1cc(C(F)(F)F)cnc1-c1ncc(-c2cc(F)cc(F)c2)n1C` [Compound P36], the mortality at 400 ppm in assay [2] is more than 80%.
Take `CCS(=O)(=O)c1cc(C(F)(F)F)cnc1-c1ncc(-c2cccc(C#N)c2)n1C` [Compound P41]: the percent control (mortality, anti-feedancy or growth inhibition) at 400 ppm in assay [1] was not below 80%. In addition, the mortality at 400 ppm in assay [2] was more than 80%. In assay [4], this compound gave a mortality at 12.5 ppm not below 80%.
In the case of `CCS(=O)(=O)c1cc(C(F)(F)F)cnc1-c1ncc(-c2ccc(F)c(F)c2)n1C` [Compound P43], the percent control (mortality, anti-feedancy or growth inhibition) at 400 ppm in assay [1] was not below 80%. The mortality at 400 ppm in assay [5] and in assay [2] was more than 80% each time. Further, the mortality at 12.5 ppm in assay [4] was not below 80%.
On to `CCS(=O)(=O)c1cc(C(F)(F)F)cnc1-c1ncc(-c2cc(F)c(F)c(F)c2)n1C` [Compound P44], for which, in assay [1], the percent control (mortality, anti-feedancy or growth inhibition) at 400 ppm is not below 80%. The mortality at 400 ppm in assay [5] and in assay [2] was more than 80% in each case.
Regarding `CCS(=O)(=O)c1cc(C(F)(F)F)cnc1-c1ncc(-c2ccc(C#N)cc2)n1C` [Compound P45], the percent control (mortality, anti-feedancy or growth inhibition) at 400 ppm in assay [1] was not below 80%. The mortality at 400 ppm in assay [5] and in assay [2] was more than 80% in each case. In addition, in assay [4], the mortality at 12.5 ppm was not below 80%.
Turning to `CCS(=O)(=O)c1cc(C(F)(F)F)cnc1-c1ncc(-c2ccc(C#N)nc2)n1C` [Compound P47], the percent control (mortality, anti-feedancy or growth inhibition) at 400 ppm in assay [1] is not below 80%. For the same compound, in assay [2], the mortality at 400 ppm is more than 80%.
Take `CCS(=O)(=O)c1cc(C(F)(F)F)cnc1-c1ncc(-c2ccc3c(c2)OC(F)(F)O3)n1C` [Compound P48]: the percent control (mortality, anti-feedancy or growth inhibition) at 400 ppm in assay [1] was not below 80%. The mortality at 400 ppm in assay [5] and in assay [2] was more than 80% throughout.
Regarding `CCS(=O)(=O)c1cc(C(F)(F)F)cnc1-c1ncc(-c2ccc(C(F)(F)F)c(C(F)(F)F)c2)n1C` [Compound P49], the percent control (mortality, anti-feedancy or growth inhibition) at 400 ppm in assay [1] is not below 80%. Moreover, the mortality at 400 ppm in assay [5] and in assay [2] was more than 80% each time.
As for `CCS(=O)(=O)c1cc(C(F)(F)F)cnc1-c1ncc(-c2cc(C(F)(F)F)cc(Cl)n2)n1C` [Compound P51], the percent control (mortality, anti-feedancy or growth inhibition) at 400 ppm in assay [1] is not below 80%. The mortality at 400 ppm in assay [5] and in assay [2] was more than 80% throughout.
On to `CCS(=O)(=O)c1cc(C(F)(F)F)cnc1-c1ncc(-c2cc(C(F)(F)F)cc(C(F)(F)F)c2)n1C` [Compound P52], for which the percent control (mortality, anti-feedancy or growth inhibition) at 400 ppm in assay [1] is not below 80%. In addition, the mortality at 400 ppm in assay [5] and in assay [2] was more than 80% in each case.
As to `CCS(=O)(=O)c1cc(C(F)(F)F)cnc1-c1ncc(-c2ccc(F)c(Cl)c2)n1C` [Compound P53], in assay [1], the percent control (mortality, anti-feedancy or growth inhibition) at 400 ppm is not below 80%. For the same compound, the mortality at 400 ppm in assay [5] and in assay [2] was more than 80% in each case.

Values taken from US9988366B2, “Pesticidally active heterocyclic derivatives with sulphur containing substituents” (Syngenta Participations AG, priority 2014, dated 2018).
